Data taken from patent US8796258B2, “Cyclic azabenzimidazole derivatives useful as anti-diabetic agents” (Merck Sharp & Dohme Corp., priority 2011, dated 2014).

Columns and labels:
[1] = biological target: T1, recombinant human AMPK complex 1 (containing α1β1γ1) (Homo sapiens, UniProt Q13131+Q9Y478); assay: AMPKSAMSF in vitro AMPK activation assay; type: biochemical; details: recombinant human AMPK complex 1 (α1β1γ1); for Emax: 10-point titration, read-out: % Maximum AMP Activation of human AMPK Complex 1; for EC50: inflection point reflecting 50% of the maximum activation
T1 construct: made in house; host or cells: Spodoptera frugiperda Sf21 cells, baculovirus (pBacPak9 clones, triple infection)
Description: The recombinant human AMPK complex 1 (containing α1β1γ1) was obtained from baculovirus expression system. Recombinant viruses were generated by cotransfection of AMPK/pBacPak9 clones with Baculogold baculovirus DNA (Pharmingen) in spodoptera frugiperda 21 cells according to the manufacturer's instructions. Each round of virus amplification was performed for 5 days in Grace's medium containing 10% serum. Virus that had been subjected to three rounds of amplification was used for all protein production procedures. To express the AMPK complex, sf21 cells were adapted to serum free medium (SF900 II, Invitrogen) by sequential dilution from serum containing stocks into SF9001I medium and maintained in shaker flasks at 90 rpm at 27° C. The recombinant AMPK enzyme complex was produced by triple infection, one recombinant virus for each of the subunits, in sf21 cells under serum free conditions. Cells were infected in log phase, 1×10^6 cells/ml, at a multiplicity of infection of […]. Cells were harvested by centrifugation at 10,000×g for 15 minutes after 72 hours of infection with viruses. The insect cell pellet from 2 liters of culture was resuspended in 50 ml lysis buffer (20 mM Tris-HCl, 50 mM NaCl, 50 mM NaF, 30 mM Na PPi, 0.25 M sucrose, 10 mM ZnCl2, 2 mM DTT, 0.4 mg/ml digitonin) and subjected to two cycles of freeze-thaw lysis in a dry-ice ethanol bath. Insoluble material was removed by centrifugation at 10,000×g and the supernatant was fractionated with use of polyethylene glycol (PEG). The protein fraction precipitating between 2.5 and 6% PEG was used for further purification using a Blue-Sepharose step (Zhou et al, J. Clin. Invest. 108, 1167-1174, 2001).
The in vitro AMPK activation assay is performed in a volume of 30 μl in a 384-well plate. Enzyme reactions were assembled in the microtiter plate by adding 15 μl of 2× enzyme in assay buffer (20 mM HEPES, pH 7.3, 5 mM MgCl2, 3 mM DTT, 0.01% Brij 35 and CamK Kinase, to activate AMPK) to wells which contained either DMSO or compound. The reaction was initiated with the addition of 15 μl 2× substrate mixture containing 200 μM ATP, and 3.0 μM fluorescently labeled SAMS (5-FAM-HMRSAMSGLHLVKRR-COOH) in assay buffer. After 45-minute incubation at 25° C., the reaction was stopped by the addition of 70 μl stop buffer (100 mM HEPES, pH 7.3, 40 mM EDTA, 0.015% Brij 35). Phosphorylated 5-FAM SAMS product is assessed using a Caliper EZ Reader LabChip microfluidics reader. Product conversion is determined by calculating the peak heights of the substrate and product and reporting the product/(product+substrate) peak ratio. The 10-point titration data were expressed as % maximum AMP activation. The results were plotted using 4 parameter fit and the inflection point reflecting 50% of the maximum activation was reported as the EC50.

ob/ob and db/db mice = details: cited from earlier work
[2] = tested on: obese Zucker (fa/fa) rats; details: 7 week administration; cited from earlier work
[3] = tested on: rats displaying characteristics of insulin resistance syndrome; details: rat, in vivo; cited from earlier work

T1 sequence (Q13131 whole entry): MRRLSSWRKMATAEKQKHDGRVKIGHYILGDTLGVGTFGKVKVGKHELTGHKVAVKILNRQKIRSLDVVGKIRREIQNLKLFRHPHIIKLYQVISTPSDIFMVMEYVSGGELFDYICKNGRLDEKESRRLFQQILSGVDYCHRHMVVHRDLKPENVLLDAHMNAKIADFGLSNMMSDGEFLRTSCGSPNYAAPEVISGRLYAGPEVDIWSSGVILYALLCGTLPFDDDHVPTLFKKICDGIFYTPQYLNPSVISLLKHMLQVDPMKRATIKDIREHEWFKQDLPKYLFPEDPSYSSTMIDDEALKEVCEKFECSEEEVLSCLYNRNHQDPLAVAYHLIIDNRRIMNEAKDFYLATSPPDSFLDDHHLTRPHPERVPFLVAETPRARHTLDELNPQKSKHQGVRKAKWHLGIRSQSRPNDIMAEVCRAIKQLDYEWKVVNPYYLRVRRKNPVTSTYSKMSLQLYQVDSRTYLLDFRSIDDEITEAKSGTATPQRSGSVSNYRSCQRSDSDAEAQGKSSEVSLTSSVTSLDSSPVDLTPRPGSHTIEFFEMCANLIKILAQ
T1 sequence (Q9Y478 whole entry): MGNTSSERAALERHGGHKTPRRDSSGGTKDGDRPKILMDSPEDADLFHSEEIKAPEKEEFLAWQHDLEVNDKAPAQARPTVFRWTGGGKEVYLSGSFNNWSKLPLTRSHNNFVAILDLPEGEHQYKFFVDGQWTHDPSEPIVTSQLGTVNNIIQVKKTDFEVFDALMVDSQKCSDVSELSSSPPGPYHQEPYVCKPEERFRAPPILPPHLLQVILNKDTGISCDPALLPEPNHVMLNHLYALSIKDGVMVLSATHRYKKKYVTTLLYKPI
T1 sequence (P54619 whole entry partner): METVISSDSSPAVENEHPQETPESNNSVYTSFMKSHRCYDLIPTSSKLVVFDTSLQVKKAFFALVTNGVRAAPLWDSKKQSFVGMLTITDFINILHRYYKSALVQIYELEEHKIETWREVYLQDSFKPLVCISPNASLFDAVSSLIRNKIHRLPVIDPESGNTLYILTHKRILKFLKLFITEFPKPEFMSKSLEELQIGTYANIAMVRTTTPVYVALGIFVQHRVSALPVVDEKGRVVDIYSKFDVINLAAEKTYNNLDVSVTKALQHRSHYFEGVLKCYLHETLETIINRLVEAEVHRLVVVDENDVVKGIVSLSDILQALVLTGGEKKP

Row | Compound | Emax [1] [%] | EC50 [1] [nM] | further results
1 | Cc1ccc(Oc2nc3nc(-c4ccc(N5CCCC5)cc4)c(Cl)cc3[nH]2)cc1C(=O)O [Example 3] | 681 | 1 | 
2 | O[C@@H]1CO[C@H]2[C@@H]1OC[C@H]2Oc1nc2nc(-c3ccc(-n4cc5c(n4)CNC5)cc3)c(Cl)cc2[nH]1 [Example 177] | 368 | 18 | 
3 | O[C@@H]1CO[C@H]2[C@@H]1OC[C@H]2Oc1nc2nc(-c3ccc(-c4ccc(-n5cncn5)cc4)cc3)c(Cl)cc2[nH]1 [Example 180, (3R,3a,6R,6aR)-6-[[6-chloro-5-[4-[4-(1,2,4-triazol-1-yl)phenyl]phenyl]-1H-imidazo[4,5-b]pyridin-2-yl]oxy]-2,3,3a,5,6,6a-hexahdrofuro[3,2-b]furan-3-ol] | 350 | 0.3 | 
4 | O[C@@H]1CO[C@@H]2C(Oc3nc4nc(-c5ccc(-c6ccc(-c7nnn[nH]7)cc6)cc5)c(Cl)cc4[nH]3)CO[C@H]12 (stereo partly drawn) [Example 207, (3R,3aR,6R,6R)-6-[[6-chloro-5-[4-[4-(1H-tetrazol-5-yl)phenyl]phenyl]-1H-imidazo[4,5-b]pyridin-2-yl]oxy]-2,3,3a,5,6,6a-hexahydrofuro[3,2-b]furan-3-ol] | 289 | 0.5 | 
5 | O=C(O)[C@H]1CC[C@H](Oc2nc3nc(-c4ccc(N5CCCC5)cc4)c(Cl)cc3[nH]2)CC1 [Example 30] |  | 24 | 
6 | CC(C)(O)Cn1cc2c(n1)CN(c1ccc(-c3nc4nc(O[C@@H]5CO[C@H]6[C@@H]5OC[C@H]6O)[nH]c4cc3Cl)cc1)C2 [Example 171, (3R,3aR,6R,6aR)-6-[[6-chloro-5-[4-[2-(2-hydroxy-2-methyl-propyl)-4,6-dihydropyrrolo[3,4-c]pyrazol-5-yl]phenyl]-1H-imidazo[4,5-b]pyridin-2-yl]oxy]-2,3,3a,5,6,6a-hexahydrofuro[3,2-b]furan-3-ol] | 252 | 1 | 
7 | CC(C)(O)Cc1cnn(-c2ccc(-c3ccc(-c4nc5nc(O[C@@H]6CO[C@H]7[C@@H]6OC[C@H]7O)[nH]c5cc4Cl)cc3)nc2)c1 [Example 202, (3R,3aR,6R,6aR)-6-[[6-chloro-5-[4-[5-[4-(2-hydroxy-2-methyl-propyl)pyrazol-1-yl]-2-pyridyl]phenyl]-1H-imidazo[4,5-b]pyridin-2-yl]oxy]-2,3,3a,5,6,6a-hexahydrofuro[3,2-b]furan-3-ol] | 372 | 1 | 
8 | O[C@@H]1CO[C@H]2[C@@H]1OC[C@H]2Oc1nc2nc(-c3ccc(-c4ccc(-n5cccn5)nc4)cc3)c(Cl)cc2[nH]1 [Example 179, (3R,3aR,6R,6aR)-6-[[6-chloro-5-[4-(6-pyrazol-1-yl-3-pyridyl)phenyl]-1H-imidazo[4,5-b]pyridin-2-yl]oxy]-2,3,3a,5,6,6a-hexahydrofuro[3,2-b]furan-3-ol] | 292 | 0.9 | 
9 | CC(C)(O)[C@H]1C[C@@H](Oc2nc3nc(-c4ccc(-c5ccc(S(C)(=O)=O)cc5)cc4)c(Cl)cc3[nH]2)C1 [Example 130, 2-[cis-3-({6-chloro-5-[4′-(methylsulfonyl)biphenyl-4-yl]-1H-imidazo[4,5-b]pyridin-2-yl}oxy)cyclobutyl]propan-2-ol] | 440 | 47 | 
10 | O=S(=O)(NC1CC1)n1cc2c(n1)CN(c1ccc(-c3nc4nc(O[C@@H]5CO[C@H]6[C@@H]5OC[C@H]6O)[nH]c4cc3Cl)cc1)C2 [Example 178] | 223 | 1 | 
11 | O=C(O)[C@H]1CC[C@H](Oc2nc3nc(-c4ccc(-c5ccccc5)cc4)c(Cl)cc3[nH]2)CC1 [Example 29] | 798 | 7 | 
12 | CC(C)(F)Cn1cc2c(n1)CN(c1ccc(-c3nc4nc(O[C@@H]5CO[C@H]6[C@@H]5OC[C@H]6O)[nH]c4cc3Cl)cc1)C2 [Example 172] | 249 | 2 | 
13 | CC(C)(O)Cc1cnn(-c2ccc(-c3ccc(-c4nc5nc(O[C@@H]6CO[C@H]7[C@@H]6OC[C@H]7O)[nH]c5cc4Cl)cc3)cc2)c1 [Example 190] | 374 | 1 | 
14 | OCC1(CO)CC(Oc2nc3nc(-c4ccc(-c5ccccc5)cc4)c(Cl)cc3[nH]2)C1 [Example 111] | 813 | 28 | 
15 | O[C@@H]1CO[C@H]2[C@@H]1OC[C@H]2Oc1nc2nc(-c3ccc(C#CC4CCNCC4)cc3)c(Cl)cc2[nH]1 [Example 214, (3R,3aR,6R,6aR)-6-((6-chloro-5-(4-(piperidin-4-ylethynyl)phenyl)-1H-imidazo[4,5-b]pyridin-2-yl)oxy)hexahydrofuro[3,2-b]furan-3-ol] | 386 | 6 | 
16 | OC[C@H]1OC[C@H](Oc2nc3nc(-c4ccc(-c5ccccc5)cc4)c(Cl)cc3[nH]2)C[C@@H]1O [Example 140, (2R3S,5R)-5-[[6-chloro-5-(4-phenylphenyl)-1H-imidazo[4,5-b]pyridin-2-yl]oxy]-2-(hydroxymethyl)tetrahydropyran-3-ol] | 668 | 38 | 
17 | O[C@@H]1CO[C@H]2[C@@H]1OC[C@H]2Oc1nc2nc(-c3ccc(-c4ccccc4)cc3)c(Cl)cc2[nH]1 [Example 159, 1,4:3,6-dianhydro-2-O-[5-(biphenyl-4-yl)-6-chloro-1H-imidazo[4,5-b]pyridin-2-yl]-D-mannitol] | 373 | 4 | 
18 | O[C@@H]1CO[C@H]2[C@@H]1OC[C@H]2Oc1nc2nc(-c3ccc(-c4ccc(-n5cccn5)cc4)cc3)c(Cl)cc2[nH]1 [Example 163, (3R,3aR,6R,6aR)-6-[[6-chloro-5-[4-(4-pyrazol-1-ylphenyl)phenyl]-1H-imidazo[4,5-b]pyridin-2-yl]oxy]-2,3,3a,5,6,6a-hexahydrofuro[3,2-b]furan-3-ol] | 362 | 0.3 | 
19 | NC(=O)c1ncn([C@@H]2O[C@H](CO)[C@@H](O)[C@H]2O)c1N [AICAR] |  |  | glucose homeostasis (ob/ob and db/db mice; insulin-resistant diabetic (ob/ob) mice): improvement in glucose homeostasis; blood glucose reduction (ob/ob and db/db mice; ob/ob and db/db mice, following 8 weeks of administration): 35%; HDL cholesterol [2]: increase in HDL cholesterol; glucose metabolism as assessed by an oral glucose tolerance test [2]: normalization of glucose metabolism; plasma triglycerides and free fatty acids [2]: reduction in plasma triglycerides and free fatty acids; blood pressure [3]: reduction of blood pressure
20 | O=C(O)C1CCC(Oc2nc3nc(-c4ccc(N5CCCC5)cc4)c(Cl)cc3[nH]2)CC1 (centres unmarked) [Example 30] | 852 |  | 
21 | CS(=O)(=O)c1ccc(-c2ccc(-c3nc4nc(O[C@H]5CC[C@H](C(=O)O)CC5)[nH]c4cc3Cl)cc2)cc1 [Example 79, Trans-4-({6-chloro-5-[4′-(methylsulfonyl)biphenyl-4-yl]-1H-imidazo[4,5-b]pyridin-2-yl}oxy)cyclohexanecarboxylic acid] | 661 | 5 | 
